Measured values published in US10669242B2 (priority 2016, dated 2020).

These molecules were tested against T1, recombinant glucosyltransferase domain of C. difficile Toxin B/TcdB (Clostridioides difficile, UniProt P18177) (assay: biochemical).
T1 construct: 6-His (C); purchased R&D Systems 6246-GT
T1 sequence (P18177 1-543): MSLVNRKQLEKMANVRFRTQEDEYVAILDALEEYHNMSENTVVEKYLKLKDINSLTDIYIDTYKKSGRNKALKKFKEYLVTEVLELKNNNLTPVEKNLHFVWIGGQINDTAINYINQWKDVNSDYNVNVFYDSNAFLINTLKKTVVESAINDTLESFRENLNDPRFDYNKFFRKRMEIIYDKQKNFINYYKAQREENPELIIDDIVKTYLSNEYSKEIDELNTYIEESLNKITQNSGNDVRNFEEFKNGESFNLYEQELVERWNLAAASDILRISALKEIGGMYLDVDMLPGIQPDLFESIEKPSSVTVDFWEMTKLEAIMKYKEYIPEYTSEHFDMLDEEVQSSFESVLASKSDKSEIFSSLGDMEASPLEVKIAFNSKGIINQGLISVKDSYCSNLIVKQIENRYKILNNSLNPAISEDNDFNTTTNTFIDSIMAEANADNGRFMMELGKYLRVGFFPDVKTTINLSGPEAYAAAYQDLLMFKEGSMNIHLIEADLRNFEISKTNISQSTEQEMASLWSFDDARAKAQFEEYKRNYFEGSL

Row | Compound | IC50
1 | O=C(Nc1ccccn1)c1ccc(CN2C(=O)c3ccc(Cl)cc3NC(=O)[C@H]2Cc2ccccc2F)cc1 [Example 4an, (R)-4-((8-chloro-3-(2-fluorobenzyl)-2,5-dioxo-2,3-dihydro-1H-benzo[e][1,4]diazepin-4(5H)-yl)methyl)-N-(pyridin-2-yl)benzamide] | < 100 nM
2 | COc1ccc(NC(=O)c2ccc(CN3C(=O)c4ccc(Cl)cc4NC(=O)[C@H]3Cc3ccccn3)cc2)nc1 [Example 4ao, (R)-4-((8-chloro-2,5-dioxo-3-(pyridin-2-ylmethyl)-2,3-dihydro-1H-benzo[e][1,4]diazepin-4(5H)-yl)methyl)-N-(5-methoxypyridin-2-yl)benzamide] | < 100 nM
3 | CCc1ccc(NC(=O)c2ccc(CN3C(=O)c4ccc(Cl)cc4NC(=O)[C@H]3Cc3ccccn3)cc2)nc1 [Example 4ap, (R)-4-((8-chloro-2,5-dioxo-3-(pyridin-2-ylmethyl)-2,3-dihydro-1H-benzo[e][1,4]diazepin-4(5H)-yl)methyl)-N-(5-ethylpyridin-2-yl)benzamide] | < 100 nM
4 | O=C(Nc1ccccn1)c1ccc(CN2C(=O)c3ccc(Cl)cc3NC(=O)[C@@H]2Cc2ccccn2)cc1 [Example 4aq, (S)-4-((8-chloro-2,5-dioxo-3-(pyridin-2-ylmethyl)-2,3-dihydro-1H-benzo[e][1,4]diazepin-4(5H)-yl)methyl)-N-(pyridin-2-yl)benzamide] | < 100 nM
5 | CC1(C)Cc2cccnc2N1C(=O)c1ccc(CN2C(=O)c3ccc(Cl)cc3NC(=O)[C@H]2Cc2ccccn2)cc1Cl [Example 4ar, (R)-8-chloro-4-(3-chloro-4-(2,2-dimethyl-2,3-dihydro-1H-pyrrolo[2,3-b]pyridine-1-carbonyl)benzyl)-3-(pyridin-2-ylmethyl)-3,4-dihydro-1H-benzo[e][1,4]diazepine-2,5-dione] | < 100 nM
6 | CC1(C)CN(C(=O)c2ccc(CN3C(=O)c4ccc(Cl)cc4NC(=O)[C@H]3Cc3ccccn3)cc2Cl)c2ncccc21 [Example 4as, (R)-8-chloro-4-(3-chloro-4-(3,3-dimethyl-2,3-dihydro-1H-pyrrolo[2,3-b]pyridine-1-carbonyl)benzyl)-3-(pyridin-2-ylmethyl)-3,4-dihydro-1H-benzo[e][1,4]diazepine-2,5-dione] | < 100 nM
7 | CC(C)c1ccc(NC(=O)c2ccc(CN3C(=O)c4ccc(Cl)cc4NC(=O)[C@H]3Cc3cccnc3)cc2)nc1 [Example 4at, (R)-4-((8-chloro-2,5-dioxo-3-(pyridin-3-ylmethyl)-2,3-dihydro-1H-benzo[e][1,4]diazepin-4(5H)-yl)methyl)-N-(5-isopropylpyridin-2-yl)benzamide] | < 100 nM
8 | O=C(Nc1ccc(N2CCOCC2)cn1)c1ccc(CN2C(=O)c3ccc(Cl)cc3NC(=O)[C@H]2Cc2ccccn2)cc1 [Example 4av, (R)-4-((8-chloro-2,5-dioxo-3-(pyridin-2-ylmethyl)-2,3-dihydro-1H-benzo[e][1,4]diazepin-4(5H)-yl)methyl)-N-(5-morpholinopyridin-2-yl)benzamide] | < 100 nM
9 | CC(C)(C)OC(=O)N1CCN(c2ccc(NC(=O)c3ccc(CN4C(=O)c5ccc(Cl)cc5NC(=O)[C@H]4Cc4ccccn4)cc3)nc2)CC1 [Example 4aw, (R)-tert-butyl 4-(6-(4-((8-chloro-2,5-dioxo-3-(pyridin-2-ylmethyl)-2,3-dihydro-1H-benzo[e][1,4]diazepin-4(5H)-yl)methyl)benzamido)pyridin-3-yl)piperazine-1-carboxylate] | 100 to 999 nM
10 | CN1CCN(c2ccc(NC(=O)c3ccc(CN4C(=O)c5ccc(Cl)cc5NC(=O)[C@H]4Cc4ccccn4)cc3)nc2)CC1 [Example 4ax, (R)-4-((8-chloro-2,5-dioxo-3-(pyridin-2-ylmethyl)-2,3-dihydro-1H-benzo[e][1,4]diazepin-4(5H)-yl)methyl)-N-(5-(4-methylpiperazin-1-yl)pyridin-2-yl)benzamide] | < 100 nM
11 | CCc1ccc(NC(=O)c2ccc(CN3C(=O)c4ccc(Cl)cc4NC(=O)[C@H]3C)cc2)nc1 [Example 4ay, (R)-4-((8-chloro-3-methyl-2,5-dioxo-2,3-dihydro-1H-benzo[e][1,4]diazepin-4(5H)-yl)methyl)-N-(5-ethylpyridin-2-yl)benzamide] | 100 to 999 nM
12 | CC(C)c1ccc(NC(=O)c2ccc(CN3C(=O)c4ccc(Cl)cc4NC(=O)[C@H]3C)cc2)nc1 [Example 4az, (R)-4-((8-chloro-3-methyl-2,5-dioxo-2,3-dihydro-1H-benzo[e][1,4]diazepin-4(5H)-yl)methyl)-N-(5-isopropylpyridin-2-yl)benzamide] | 100 to 999 nM
13 | COc1ccc(NC(=O)c2ccc(CN3C(=O)c4ccc(Cl)cc4NC(=O)[C@H]3C)cc2)nc1 [Example 4ba, (R)-4-((8-chloro-3-methyl-2,5-dioxo-2,3-dihydro-1H-benzo[e][1,4]diazepin-4(5H)-yl)methyl)-N-(5-methoxypyridin-2-yl)benzamide] | 100 to 999 nM
14 | C[C@@H]1C(=O)Nc2cc(Cl)ccc2C(=O)N1Cc1ccc(C(=O)Nc2cc3ccccc3cn2)cc1 [Example 4bb, (R)-4-((8-chloro-3-methyl-2,5-dioxo-2,3-dihydro-1H-benzo[e][1,4]diazepin-4(5H)-yl)methyl)-N-(isoquinolin-3-yl)benzamide] | 100 to 999 nM
15 | C[C@@H]1C(=O)Nc2cc(Cl)ccc2C(=O)N1Cc1ccc(C(=O)Nc2ccc(-c3ccccc3)cn2)cc1 [Example 4bc, (R)-4-((8-chloro-3-methyl-2,5-dioxo-2,3-dihydro-1H-benzo[e][1,4]diazepin-4(5H)-yl)methyl)-N-(5-phenylpyridin-2-yl)benzamide] | 100 to 999 nM
16 | O=C(Nc1ccccn1)c1ccc(CN2C(=O)c3ccc(Br)cc3NC(=O)[C@H]2Cc2cccnc2)cc1 [Example 4bd, (R)-4-((8-bromo-2,5-dioxo-3-(pyridin-3-ylmethyl)-2,3-dihydro-1H-benzo[e][1,4]diazepin-4(5H)-yl)methyl)-N-(pyridin-2-yl)benzamide] | < 100 nM
17 | COc1cnc(NC(=O)c2ccc(CN3C(=O)c4ccc(Cl)cc4NC(=O)[C@H]3C)cc2)nc1 [Example 4be, (R)-4-((8-chloro-3-methyl-2,5-dioxo-2,3-dihydro-1H-benzo[e][1,4]diazepin-4(5H)-yl)methyl)-N-(5-methoxypyrimidin-2-yl)benzamide] | < 100 nM
18 | C[C@@H]1C(=O)Nc2cc(Cl)ccc2C(=O)N1Cc1ccc(C(=O)Nc2ccc(N3CCOCC3)cn2)cc1 [Example 4bf, (R)-4-((8-chloro-3-methyl-2,5-dioxo-2,3-dihydro-1H-benzo[e][1,4]diazepin-4(5H)-yl)methyl)-N-(5-morpholinopyridin-2-yl)benzamide] | 100 to 999 nM
19 | C[C@@H]1C(=O)Nc2cc(Cl)ccc2C(=O)N1Cc1ccc(C(=O)Nc2ccc(N3CCN(C(=O)OC(C)(C)C)CC3)cn2)cc1 [Example 4bg, (R)-tert-butyl 4-(6-(4-((8-chloro-3-methyl-2,5-dioxo-2,3-dihydro-1H-benzo[e][1,4]diazepin-4(5H)-yl)methyl)benzamido)pyridin-3-yl)piperazine-1-carboxylate] | 100 to 999 nM
20 | C[C@@H]1C(=O)Nc2cc(Cl)ccc2C(=O)N1Cc1ccc(C(=O)Nc2ccc(N3CCN(C)CC3)cn2)cc1 [Example 4bh, (R)-4-((8-chloro-3-methyl-2,5-dioxo-2,3-dihydro-1H-benzo[e][1,4]diazepin-4(5H)-yl)methyl)-N-(5-(4-methylpiperazin-1-yl)pyridin-2-yl)benzamide] | 100 to 999 nM
21 | Cc1cnc(NC(=O)c2ccc(CN3C(=O)c4ccc(Cl)cc4NC(=O)[C@H]3C)cc2)cn1 [Example 4bi, (R)-4-((8-chloro-3-methyl-2,5-dioxo-2,3-dihydro-1H-benzo[e][1,4]diazepin-4(5H)-yl)methyl)-N-(5-methylpyrazin-2-yl)benzamide] | 100 to 999 nM
22 | Cc1nnc(NC(=O)c2ccc(CN3C(=O)c4ccc(Cl)cc4NC(=O)[C@H]3Cc3ccccn3)cc2)[nH]1 [Example 4bj, (R)-4-((8-chloro-2,5-dioxo-3-(pyridin-2-ylmethyl)-2,3-dihydro-1H-benzo[e][1,4]diazepin-4(5H)-yl)methyl)-N-(5-methyl-4H-1,2,4-triazol-3-yl)benzamide] | 1000 to 10000 nM
23 | Cc1nsc(NC(=O)c2ccc(CN3C(=O)c4ccc(Cl)cc4NC(=O)[C@H]3Cc3ccccn3)cc2)n1 [Example 4bk, (R)-4-((8-chloro-2,5-dioxo-3-(pyridin-2-ylmethyl)-2,3-dihydro-1H-benzo[e][1,4]diazepin-4(5H)-yl)methyl)-N-(3-methyl-1,2,4-thiadiazol-5-yl)benzamide] | 10000 to 35000 nM
24 | O=C(Nc1cccnn1)c1ccc(CN2C(=O)c3ccc(Cl)cc3NC(=O)[C@H]2Cc2ccccn2)cc1 [Example 4bl, (R)-4-((8-chloro-2,5-dioxo-3-(pyridin-2-ylmethyl)-2,3-dihydro-1H-benzo[e][1,4]diazepin-4(5H)-yl)methyl)-N-(pyridazin-3-yl)benzamide] | 100 to 999 nM
25 | COc1ccc(NC(=O)c2ccc(CN3C(=O)c4ccc(Cl)cc4NC(=O)[C@H]3Cc3ccccn3)cc2)nn1 [Example 4bm, (R)-4-((8-chloro-2,5-dioxo-3-(pyridin-2-ylmethyl)-2,3-dihydro-1H-benzo[e][1,4]diazepin-4(5H)-yl)methyl)-N-(6-methoxypyridazin-3-yl)benzamide] | < 100 nM
26 | Cc1nnc(NC(=O)c2ccc(CN3C(=O)c4ccc(Cl)cc4NC(=O)[C@H]3Cc3ccccn3)cc2)s1 [Example 4bn, (R)-4-((8-chloro-2,5-dioxo-3-(pyridin-2-ylmethyl)-2,3-dihydro-1H-benzo[e][1,4]diazepin-4(5H)-yl)methyl)-N-(5-methyl-1,3,4-thiadiazol-2-yl)benzamide] | 1000 to 10000 nM
27 | Cc1nnc(NC(=O)c2ccc(CN3C(=O)c4ccc(Cl)cc4NC(=O)[C@H]3Cc3ccccn3)cc2)o1 [Example 4bo, (R)-4-((8-chloro-2,5-dioxo-3-(pyridin-2-ylmethyl)-2,3-dihydro-1H-benzo[e][1,4]diazepin-4(5H)-yl)methyl)-N-(5-methyl-1,3,4-oxadiazol-2-yl)benzamide] | < 100 nM
28 | O=C(Nc1nncs1)c1ccc(CN2C(=O)c3ccc(Cl)cc3NC(=O)[C@H]2Cc2ccccn2)cc1 [Example 4bp, (R)-4-((8-chloro-2,5-dioxo-3-(pyridin-2-ylmethyl)-2,3-dihydro-1H-benzo[e][1,4]diazepin-4(5H)-yl)methyl)-N-(1,3,4-thiadiazol-2-yl)benzamide] | 100 to 999 nM
